pIC50: −log10 of the molar value. Structures can show the parent of a compound that is named as a salt.

Experiment [1] addresses PI3Kδ (p110δ/p85α) Recombinant Human Protein (Homo sapiens (Human), UniProt O00329). Kind of experiment: PI3Kδ Scintillation Proximity Assay. It counts as biochemical. The settings on record: 20 μM PIP2, 2 μM ATP, 3.4 nM PI3Kδ, 120 min; read-out: PI3K-delta SPA IC50. An excerpt:
[γ-^33P]ATP (10 mCi/mL) and Wheat Germ Agglutinin (WGA) YSi SPA Scintillation Beads was purchased from Perkin-Elmer (Waltham, Mass.). Lipid kinase substrate, D-myo-Phosphatidylinositol 4,5-bisphosphate (PtdIns(4,5)P2)D (+)-sn-1,2-di-O-octanoylglyceryl, 3-O-phospho linked (PIP2), CAS 204858-53-7, was purchased from Echelon Biosciences (Salt Lake City, Utah). PI3Kδ (p110δ/p85α) Recombinant Human Protein was purchased from Eurofins (St Charles, Mo.). ATP, MgCl2, DTT, EDTA, MOPS and CHAPS were purchased from Sigma-Aldrich (St. Louis, Mo.).
(§1) The kinase reaction was conducted in polystyrene 384-well Greiner Bio-one white plate from Thermo Fisher Scientific in a final volume of 25 μL. Inhibitors were first diluted serially in DMSO and added to the plate wells before the addition of other reaction components. The final concentration of DMSO in the assay was 2%. The PI3Kδ assay was carried out at room temperature in 20 mM MOPS, pH 6.7, 10 mM MgCl2, 5 mM DTT and CHAPS 0.03%. Reactions were initiated by the addition of ATP, the final reaction mixture consisted of 20 μM PIP2, 2 μM ATP, 0.5 μCi [γ-^33P] ATP, 3.4 nM PI3Kδ. Reactions were incubated for 120 min and terminated by the addition of 40 μL SPA beads suspended in quench buffer: 163 mM potassium phosphate pH 7.8, 20% glycerol, 25 mM EDTA. The final concentration of SPA beads is 1.0 mg/mL. After the plate sealing, plates were shaken overnight at room temperature and centrifuged at 1500 rpm for 10 min, the radioactivity of the product was determined by scintillation counting on Topcount (Perkin-Elmer). IC50 determination was performed by fitting the curve of percent of the solvent control activity versus the log of the inhibitor concentration using the GraphPad Prism 6.0 software.
On the technique in general: In a scintillation proximity assay essentially only radioactivity close to the scintillant gives light.

The target of experiment [2] is PI3Kγ (p110γ) Recombinant Human Protein (Homo sapiens (Human), UniProt P48736). Kind of experiment: PI3K-γ Scintillation Proximity Assay. The following applies: 20 μM PIP2, 2 μM ATP, 13 nM PI3Kγ, 120 min; read-out: PI3K-gamma SPA IC50. It counts as biochemical. As for the experimental part: [γ-^33P]ATP (10 mCi/mL) and Wheat Germ Agglutinin (WGA) YSi SPA Scintillation Beads was purchased from Perkin-Elmer (Waltham, Mass.). […] PI3Kγ (p110γ) Recombinant Human Protein was purchased from Life technology (Grand Island, N.Y.). ATP, MgCl2, DTT, EDTA, MOPS and CHAPS were purchased from Sigma-Aldrich (St. Louis, Mo.).
as §1, with “PI3Kγ” for “PI3Kδ”, “ATP, 3.4 nM PI3Kδ. Reactions were incubated for 120 min and terminated by the addition of 40 μL SPA beads suspended in quench buffer: 163 mM potassium phosphate pH 7.8, 20% glycerol, 25 mM EDTA.” left out

PI3Kδ (p110δ/p85α) Recombinant Human Protein, sequence (O00329 whole entry): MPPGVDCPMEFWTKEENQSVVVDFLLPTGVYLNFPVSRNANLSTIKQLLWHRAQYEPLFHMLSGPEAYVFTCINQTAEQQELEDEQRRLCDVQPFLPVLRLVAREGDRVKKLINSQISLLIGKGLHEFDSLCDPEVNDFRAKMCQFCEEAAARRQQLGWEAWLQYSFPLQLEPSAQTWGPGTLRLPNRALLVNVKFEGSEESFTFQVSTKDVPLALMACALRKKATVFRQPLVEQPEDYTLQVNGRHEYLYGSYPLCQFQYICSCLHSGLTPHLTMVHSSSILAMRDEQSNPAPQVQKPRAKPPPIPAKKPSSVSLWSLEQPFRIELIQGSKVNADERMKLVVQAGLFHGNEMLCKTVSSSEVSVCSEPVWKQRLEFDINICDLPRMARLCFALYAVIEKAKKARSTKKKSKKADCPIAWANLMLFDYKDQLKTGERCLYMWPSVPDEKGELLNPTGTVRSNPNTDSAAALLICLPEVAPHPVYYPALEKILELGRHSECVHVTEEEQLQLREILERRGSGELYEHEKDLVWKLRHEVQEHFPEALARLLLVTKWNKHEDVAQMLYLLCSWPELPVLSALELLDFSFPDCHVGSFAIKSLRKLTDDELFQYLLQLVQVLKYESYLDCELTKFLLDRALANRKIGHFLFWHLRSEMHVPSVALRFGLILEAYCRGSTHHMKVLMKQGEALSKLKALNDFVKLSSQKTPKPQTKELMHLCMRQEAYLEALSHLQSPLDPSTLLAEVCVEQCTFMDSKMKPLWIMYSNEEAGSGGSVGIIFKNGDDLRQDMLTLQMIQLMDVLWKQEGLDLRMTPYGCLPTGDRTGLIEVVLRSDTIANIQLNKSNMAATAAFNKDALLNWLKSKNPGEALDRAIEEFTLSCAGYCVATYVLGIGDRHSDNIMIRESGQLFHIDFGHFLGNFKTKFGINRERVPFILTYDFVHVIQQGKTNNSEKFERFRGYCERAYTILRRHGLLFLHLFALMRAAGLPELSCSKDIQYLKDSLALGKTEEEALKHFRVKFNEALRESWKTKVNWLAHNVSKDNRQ
PI3Kδ (p110δ/p85α) Recombinant Human Protein, sequence (P27986 whole entry partner): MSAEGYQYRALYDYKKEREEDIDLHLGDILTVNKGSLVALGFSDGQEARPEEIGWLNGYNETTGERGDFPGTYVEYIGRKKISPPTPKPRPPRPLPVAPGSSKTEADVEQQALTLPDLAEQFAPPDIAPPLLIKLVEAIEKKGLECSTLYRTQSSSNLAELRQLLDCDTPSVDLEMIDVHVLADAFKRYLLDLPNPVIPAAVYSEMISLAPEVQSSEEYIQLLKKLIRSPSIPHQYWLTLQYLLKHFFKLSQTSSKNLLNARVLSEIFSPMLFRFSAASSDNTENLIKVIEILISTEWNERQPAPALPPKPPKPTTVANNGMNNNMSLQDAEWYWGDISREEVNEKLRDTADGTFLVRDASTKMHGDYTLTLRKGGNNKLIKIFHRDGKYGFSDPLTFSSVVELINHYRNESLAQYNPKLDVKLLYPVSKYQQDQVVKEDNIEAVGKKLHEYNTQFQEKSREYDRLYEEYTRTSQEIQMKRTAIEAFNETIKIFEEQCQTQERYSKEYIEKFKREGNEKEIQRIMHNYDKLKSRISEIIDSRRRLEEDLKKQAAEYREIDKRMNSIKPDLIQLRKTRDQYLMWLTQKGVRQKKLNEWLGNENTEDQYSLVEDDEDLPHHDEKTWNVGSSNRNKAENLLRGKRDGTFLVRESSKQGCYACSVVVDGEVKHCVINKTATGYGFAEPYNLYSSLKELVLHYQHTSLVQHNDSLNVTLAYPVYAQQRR
PI3Kγ (p110γ) Recombinant Human Protein, sequence (P48736 whole entry): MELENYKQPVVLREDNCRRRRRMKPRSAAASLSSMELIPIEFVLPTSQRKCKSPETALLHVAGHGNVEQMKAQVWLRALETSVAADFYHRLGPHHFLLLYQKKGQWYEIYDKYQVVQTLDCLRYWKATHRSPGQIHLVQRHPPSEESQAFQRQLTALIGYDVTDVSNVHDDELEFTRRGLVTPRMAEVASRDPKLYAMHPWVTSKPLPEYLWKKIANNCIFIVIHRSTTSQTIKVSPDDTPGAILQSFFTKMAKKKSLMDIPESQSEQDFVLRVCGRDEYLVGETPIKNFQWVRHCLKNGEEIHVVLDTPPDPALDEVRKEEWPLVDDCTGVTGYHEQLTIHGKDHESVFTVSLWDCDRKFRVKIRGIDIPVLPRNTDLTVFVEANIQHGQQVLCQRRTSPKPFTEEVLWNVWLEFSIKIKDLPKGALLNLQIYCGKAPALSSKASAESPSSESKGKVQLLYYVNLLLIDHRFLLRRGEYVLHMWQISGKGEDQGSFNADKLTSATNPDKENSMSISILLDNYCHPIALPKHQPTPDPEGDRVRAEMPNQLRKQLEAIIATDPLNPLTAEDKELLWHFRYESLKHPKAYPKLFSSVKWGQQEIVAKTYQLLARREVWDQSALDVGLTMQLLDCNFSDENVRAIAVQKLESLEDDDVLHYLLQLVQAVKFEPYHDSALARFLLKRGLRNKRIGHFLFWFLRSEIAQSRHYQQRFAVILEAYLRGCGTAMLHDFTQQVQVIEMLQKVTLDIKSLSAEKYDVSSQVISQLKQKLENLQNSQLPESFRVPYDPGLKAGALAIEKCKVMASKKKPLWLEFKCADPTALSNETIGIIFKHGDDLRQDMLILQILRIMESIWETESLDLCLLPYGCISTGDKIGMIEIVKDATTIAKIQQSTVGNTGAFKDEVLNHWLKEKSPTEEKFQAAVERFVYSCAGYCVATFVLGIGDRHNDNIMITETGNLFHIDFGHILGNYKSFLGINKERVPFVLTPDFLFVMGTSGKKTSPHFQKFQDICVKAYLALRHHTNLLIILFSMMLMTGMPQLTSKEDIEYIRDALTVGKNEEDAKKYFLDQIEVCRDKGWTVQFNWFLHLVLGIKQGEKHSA

For `CN(C)S(=O)(=O)Nc1cncc(-c2ccc3nc(-c4ncc[nH]4)oc3c2)c1` [Example 41, N′-{5-[2-(1H-Imidazol-2-yl)-1,3-benzoxazol-6-yl]pyridin-3-yl}-N,N-dimethyl-sulfamide], the pIC50 in experiment [1] was more than 6.00; in experiment [2], more than 6.60.

As for `COc1cncc(-c2ccc3nc(-c4cnc(C5CC5)[nH]4)oc3c2)c1` [Example 42, 2-(2-Cyclopropyl-1H-imidazol-5-yl)-6-(5-methoxypyridin-3-yl)benzo[d]oxazole], the results for the pIC50 in experiment [1] and in experiment [2] were more than 5.30 and more than 6.00, respectively.

Turning to `COc1cncc(-c2ccc3nc(-c4cnc(C5CCOC5)[nH]4)oc3c2)c1` (stereo not drawn) [Example 43, 6-(5-Methoxy-pyridin-3-yl)-2-(2-(tetrahydro-furan-3-yl)-1H-imidazol-5-yl)benzo[d] oxazole], the figures for the pIC50 in experiment [1] and in experiment [2] were not above 5.30 and more than 5.30, respectively.

For `COc1cncc(-c2ccc3nc(-c4cnc(-c5ccccc5)[nH]4)oc3c2)c1` [Example 44, 6-(5-Methoxy-pyridin-3-yl)-2-(2-phenyl-1H-imidazol-5-yl)benzo[d] oxazole], the results for the pIC50 in experiment [1] and in experiment [2] were not above 5.30 and more than 6.60, respectively.

`CCc1ncc(-c2nc3ccc(-c4cncc(OC)c4)cc3o2)[nH]1` [Example 45, 2-(2-Ethyl-1H-imidazol-5-yl)-6-(5-methoxy-pyridin-3-yl)benzo[d] oxazole]: the pIC50 was not above 5.30 in experiment [1] and less than 5.30 in experiment [2].

Consider `COc1cncc(-c2ccc3nc(-c4cc(C)n[nH]4)oc3c2)c1` [Example 46, 6-(5-Methoxypyridin-3-yl)-2-(3-methyl-1H-pyrazol-5-yl)benzo[d]oxazole], for which the pIC50 was not above 5.30 in experiment [1] and less than 5.30 in experiment [2].

Take `COc1cncc(-c2ccc3nc(-c4cc(-c5ccccc5)n[nH]4)oc3c2)c1` [Example 47, 6-(5-Methoxypyridin-3-yl)-2-(3-phenyl-1H-pyrazol-5-yl)benzo[d]oxazole]: the pIC50 in experiment [1] is not above 5.30; in experiment [2], more than 5.30.

Consider `c1ccc(Cn2cc(-c3ccc4nc(-c5nc6ccccc6[nH]5)oc4c3)cn2)cc1` [Example 48, 2-(1H-Benzimidazol-2-yl)-6-(1-benzyl-1H-pyrazol-4-yl)-1,3-benzoxazole], for which the pIC50 in experiment [1] was more than 5.30; in experiment [2], more than 6.60.

On to `c1ccc2[nH]c(-c3nc4ccc(-c5ccc6[nH]ncc6c5)cc4o3)nc2c1` [Example 49, 2-(1H-Benzimidazol-2-yl)-6-(1H-indazol-5-yl)-1,3-benzoxazole], for which the pIC50 in experiment [1] was more than 5.30; in experiment [2], more than 6.60.

As for `Cc1n[nH]c2ccc(-c3ccc4nc(-c5nc6ccccc6[nH]5)oc4c3)cc12` [Example 50, 2-(1H-Benzimidazol-2-yl)-6-(3-methyl-1H-indazol-5-yl)-1,3-benzoxazole], the pIC50 in experiment [1] and in experiment [2] was more than 6.60 throughout.

As for `Fc1ccc(-c2ccc3nc(-c4nc5ccccc5[nH]4)oc3c2)cc1F` [Example 51, 2-(1H-Benzimidazol-2-yl)-6-(3,4-difluorophenyl)-1,3-benzoxazole trifluoroacetate], the pIC50 in experiment [1] was not above 5.30; in experiment [2] it was more than 6.60.

As for `CCS(=O)(=O)n1ncc2ccc(-c3ccc4nc(-c5nc6ccccc6[nH]5)oc4c3)cc21` [Example 52, 6-[1-(Ethylsulfonyl)-1H-indazol-6-yl]-2-(1H-benzimidazol-2-yl)-1,3-benzoxazole], the pIC50 in experiment [1] and in experiment [2] was more than 6.60 throughout.

In the case of `CCn1cc2ccc(-c3ccc4nc(-c5nc6ccccc6[nH]5)oc4c3)cc2n1` [Example 53, 2-(1H-benzimidazol-2-yl)-6-(2-ethyl-2H-indazol-6-yl)-1,3-benzoxazole bis(trifluoroacetate)], the pIC50 is not above 5.30 in experiment [1] and more than 6.60 in experiment [2].

On to `CCn1ncc2ccc(-c3ccc4nc(-c5nc6ccccc6[nH]5)oc4c3)cc21` [Example 54, 2-(1H-benzimidazol-2-yl)-6-(1-ethyl-1H-indazol-6-yl)-1,3-benzoxazole bis(trifluoroacetate)], for which the pIC50 in experiment [1] was not above 5.30; in experiment [2], more than 6.60.

As for `c1ccc(CN2CCN(c3ccc4nc(-c5nc6ccccc6[nH]5)oc4c3)CC2)cc1` [Example 55, 2-(1H-Benzimidazol-2-yl)-6-(4-benzylpiperazin-1-yl)-1,3-benzoxazole tris(trifluoroacetate)], the results for the pIC50 in experiment [1] and in experiment [2] were not above 5.30 and more than 5.30, respectively.

`Nc1ncc(-c2ccc3nc(-c4nc5ccccc5[nH]4)oc3c2)cc1C(F)(F)F` [Example 56, 5-[2-(1H-Benzimidazol-2-yl)-1,3-benzoxazol-6-yl]-3-(trifluoromethyl)pyridin-2-amine bis(trifluoroacetate)]: the values for the pIC50 in experiment [1] and in experiment [2] were not above 5.30 and more than 6.60, respectively.

Consider `CCn1ncc2ncc(-c3ccc4nc(-c5nc6ccccc6[nH]5)oc4c3)cc21` [Example 57, 6-[2-(1H-Benzimidazol-2-yl)-1,3-benzoxazol-6-yl]-1-ethyl-1H-pyrazolo[4,3-b]pyridine tris(trifluoroacetate)], for which the pIC50 is more than 6.00 in experiment [1] and more than 6.60 in experiment [2].

Regarding `O=S(=O)(c1cncc(-c2ccc3nc(-c4nc5ccccc5[nH]4)oc3c2)c1)N1CCC(O)C1` (stereo not drawn) [Example 58, 1-({5-[2-(1H-Benzimidazol-2-yl)-1,3-benzoxazol-6-yl]pyridin-3-yl}sulfonyl)pyrrolidin-3-ol bis(trifluoroacetate)], the pIC50 in experiment [1] was more than 6.00; in experiment [2] it was more than 6.60.

As to `CCNS(=O)(=O)c1cncc(-c2ccc3nc(-c4nc5ccccc5[nH]4)oc3c2)c1` [Example 59, 5-[2-(1H-Benzimidazol-2-yl)-1,3-benzoxazol-6-yl]-N-ethylpyridine-3-sulfonamide bis(trifluoroacetate)], the pIC50 was not above 5.30 in experiment [1] and more than 6.60 in experiment [2].

Take `CCS(=O)(=O)Nc1cc(-c2ccc3nc(-c4nc5ccccc5[nH]4)oc3c2)ccc1F` [Example 60, N-{5-[2-(1H-Benzimidazol-2-yl)-1,3-benzoxazol-6-yl]-2-fluorophenyl}ethanesulfonamide]: the pIC50 is not above 5.30 in experiment [1] and more than 6.60 in experiment [2].

As to `OC(c1cncc(-c2ccc3nc(-c4ncc[nH]4)oc3c2)c1)C(F)(F)F` (stereo not drawn) [Example 61, 1-(5-(2-(1H-Imidazol-2-yl)benzo[d]oxazol-6-yl)pyridin-3-yl)-2,2,2-trifluoroethanol bis(trifluoroacetate)], the pIC50 in experiment [1] and in experiment [2] was more than 6.60 each time.

For the molecule `Cc1nc(-c2nc3ccc(-c4cncc(S(C)(=O)=O)c4)cc3o2)[nH]c1C` [Example 62, 2-(4,5-Dimethyl-1H-imidazol-2-yl)-6-(5-(methylsulfonyl)pyridin-3-yl)benzo[d]oxazole bis(trifluoroacetate)], the pIC50 was more than 5.30 in experiment [1] and more than 6.00 in experiment [2].

Take `CCS(=O)(=O)Nc1cncc(-c2ccc3nc(-c4nc(C)c(C)[nH]4)oc3c2)c1` [Example 63, N-(5-(2-(4,5-Dimethyl-1H-imidazol-2-yl)benzo[d]oxazol-6-yl)pyridin-3-yl)ethanesulfonamide bis(trifluoroacetate)]: the pIC50 was more than 6.00 in experiment [1] and more than 6.60 in experiment [2].

In the case of `CCCc1nc(-c2nc3ccc(-c4cncc(NS(=O)(=O)CC)c4)cc3o2)[nH]c1C` [Example 64, N-(5-(2-(5-Methyl-4-propyl-1H-imidazol-2-yl)benzo[d]oxazol-6-yl)pyridin-3-yl)ethanesulfonamide bis(trifluoroacetate)], the pIC50 in experiment [1] and in experiment [2] was more than 6.60 throughout.

The record behind these values is patent US9586949B2, “Aza-heteroaryl compounds as PI3K-gamma inhibitors” (Incyte Corporation, priority 2015, dated 2017).
